Source: patent publication US20120070401A1, “Composition and Method for Promoting Wound Healing” (priority 2010, published 2012)

Tested on: corneal reepithelialization
Assay: rabbit corneal wound healing model (corneal reepithelialization after 9.5-mm epithelial wound, fluorescein-stained wound area)
Assay type: in vivo, New Zealand White rabbits
Conditions: n=10 per group
Excerpt: Animals. One hundred and ten pathogen-free New Zealand White rabbits were obtained from a commercial laboratory. Animals were at least 18 weeks old and 2-3 kg body weight at the time of treatment.
Pre-Treatment Examinations. Prior to placement on study, each animal underwent a pre-treatment ophthalmic examination (slit lamp with fluorescein staining). […] Animals were then randomly assigned to eleven treatment groups (10 animals per group) according to a modified Latin square design. Animals were fasted at least 12 hours prior to corneal wound surgery.
Wounding Procedure. […]
Corneal Wound Evaluation. The corneal wound condition was evaluated immediately post wounding and at 12, 24, 36, 48, 60, and 72 hours. […] From the photographs, the perimeter of the wounds was determined using a Mechanical Polar Planimeter (LASISCO; Los Angeles, Calif.).
Numerical results were expressed as mean±SEM, n=10, unless indicated otherwise. Data were analyzed by a two-way ANOVA with repeated measures followed by the Tukey-Kramer test. In addition, overall effects were evaluated by analyzing integrated responses calculated as the areas under the curve (AUC) for each treatment over the time course. […] Integrated responses were analyzed by a one-way ANOVA followed by the Tukey-Kramer test. […]

## benzalkonium chloride [BAK]
0 to 72 hours, trapezoidal rule
  integrated wound area (AUC over the time course) compared to the saline control: no significant effects
topical, 14 instillations over 72 hours, time points 12-72 hours
  effect on corneal reepithelialization time-course (wound area) compared to the saline control: No significant effects
